Experimental data: patent US7968526B2, “Antisense oligonucleotides directed to ribonucleotide reductase R2 and uses thereof in the treatment of cancer” (Lorus Therapeutics Inc., priority 2003, dated 2011)

Assay: Pharmacokinetics in the rat (plasma, CE method)
Assay type: in vivo
Method: The toxicokinetics and tissue distribution of SEQ ID NO:1 (and related oligonucleotide metabolites obtained from exonuclease-mediated chain shortening) were determined in rats and monkeys. In addition to investigating the pharmacokinetics and tissue distribution of SEQ ID NO:1, the purpose of the studies was to correlate adverse effects in the animal studies to the concentrations of SEQ ID NO:1 (and metabolites) in tissue and blood. A capillary electrophoresis (CE) method was used to measure the concentrations of SEQ ID NO:1 (and metabolites) in plasma and tissues.
In a pharmacokinetic study, groups of male rats were administered one or two bolus i.v. injections (tail vein) of SEQ ID NO:1 at a dose of 50 mg/kg (295 mg/m^2) and intravenously infused (abdominal vena cava) for up to 48 h at a dose of 50 mg/kg/day (295 mg/m^2/day). Blood samples were collected into EDTA-containing tubes from subsets of animals in each group at various sampling times up to 56 h after initiation of infusion or bolus injection. Parent SEQ ID NO:1 concentrations were measured in plasma by a validated CE method.

[1] = 50 mg/kg/day continuous intravenous infusion

5′-GGCTAAATCGCTCCACCAAG-3′ (all phosphorothioate, sugars by position and methylation of C not given here) [SEQ ID NO: 1, fully phosphorothioated antisense oligonucleotide that hybridizes to the coding region of R2 mRNA]
AUC(0-24) [1]: 208 µg·h/mL | Cl (plasma clearance) [1]: 3.6 mL/min/kg | Css (mean plasma steady state concentration) [1]: 9.62 µg/mL | Time after infusion initiation at which steady state level was achieved [1]: approximately 3 hr | AUC(0-24) (50 mg/kg/day i.v. bolus): 369 µg·h/mL | AUC(0-inf) (50 mg/kg/day i.v. bolus): 650 µg·h/mL | AUC(0-t) (50 mg/kg/day i.v. bolus): 637 µg·h/mL | Cl (plasma clearance) (50 mg/kg/day i.v. bolus): 2.57 mL/min/kg | Kel (50 mg/kg/day i.v. bolus): 0.5109 h⁻¹ | T1/2 (plasma half-life) (50 mg/kg/day i.v. bolus): 81.6 min | Tmax (50 mg/kg/day i.v. bolus): 4.98 min | Cmax (50 mg/kg/day i.v. bolus, after second bolus injection): 679 µg/mL
